# Measured values as given in patent US20260325533A1, “CDK INHIBITOR COMPOUNDS” (ALEKSIA THERAPEUTICS, INC., priority 2023, published 2026).
# Where two headings read alike, the source gives them in different places.
# What was measured:
# Type in all cases: biochemical
# CDK6/CCND1 = CDK6/CCND1 (Homo sapiens, UniProt Q00534); assay: CDK6 homogeneous time-resolved fluorescence (HTRF) kinase assay; details: CDK6/CCND
# Summary of the method: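 1 nM enzyme, 1 mM ATP, 50 nM ULight-4E-BP1 (Thr37/46) peptide, 1% DMSO; 20 min compound preincubation, 60 min reaction, 23 °C. EDTA stop, 2 nM Eu-anti-phospho-4E-BP1 antibody 60 min. TR-FRET 665 nm (or 665/615 ratio); IC50 from 11-point half-log titration, top 10 μM.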
# CDK2/CCNE1 = CDK2/CCNE1 (Homo sapiens, UniProt P24941); assay: CDK2 homogeneous time-resolved fluorescence (HTRF) kinase assay; details: CDK2/CCNE
# Summary of the method: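 CDK2/CCNE1 (3 nM) preincubated 20 min at 23 °C with compound, then reacted 60 min at 23 °C with 1 mM ATP and 50 nM ULight-4E-BP1 (Thr37/46) peptide. Stopped with EDTA, phospho-peptide detected by Eu-anti-phospho antibody (665 nm or 665/615 ratio). IC50 from 11-point half-log titrations typically starting at 10 μM.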
# CDK1/CCNB1 = CDK1/CCNB1 (Homo sapiens, UniProt P06493); assay: CDK1 homogeneous time-resolved fluorescence (HTRF) kinase assay; details: CDK1/CCNB
# Chain of CDK1/CCNB1 (P06493 whole entry): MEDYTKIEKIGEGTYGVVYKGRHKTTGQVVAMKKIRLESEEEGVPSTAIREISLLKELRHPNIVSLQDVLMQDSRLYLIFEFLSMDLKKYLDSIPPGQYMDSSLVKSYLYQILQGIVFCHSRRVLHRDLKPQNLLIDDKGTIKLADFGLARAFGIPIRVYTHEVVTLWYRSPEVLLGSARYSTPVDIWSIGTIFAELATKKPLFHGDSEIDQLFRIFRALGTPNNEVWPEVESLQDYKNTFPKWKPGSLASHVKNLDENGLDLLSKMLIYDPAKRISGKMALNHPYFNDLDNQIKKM
# Chain of CDK1/CCNB1 (P14635 whole entry partner): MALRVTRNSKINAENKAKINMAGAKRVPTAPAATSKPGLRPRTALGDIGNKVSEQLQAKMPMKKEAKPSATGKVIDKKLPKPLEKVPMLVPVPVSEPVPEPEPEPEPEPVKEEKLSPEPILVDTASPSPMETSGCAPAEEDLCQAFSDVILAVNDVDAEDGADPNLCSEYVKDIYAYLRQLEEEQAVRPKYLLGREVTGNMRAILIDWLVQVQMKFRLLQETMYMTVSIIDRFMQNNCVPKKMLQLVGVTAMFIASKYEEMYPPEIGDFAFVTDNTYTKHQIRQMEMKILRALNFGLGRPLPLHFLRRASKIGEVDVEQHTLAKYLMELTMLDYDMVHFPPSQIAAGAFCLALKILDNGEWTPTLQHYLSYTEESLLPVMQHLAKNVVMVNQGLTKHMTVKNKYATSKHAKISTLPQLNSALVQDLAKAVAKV
# Summary of the method: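 HTRF assay with 0.5 nM CDK1/CCNB1, 1 mM ATP, 50 nM ULight-eIF4E-BP1 (Thr37/46) peptide; compound preincubated 20 min, reaction 60 min at 23 °C, EDTA stop, Eu-anti-phospho antibody detection. 11-point half-log titration from 10 μM, 1% DMSO; IC50 from 665 nm or 665/615 signal.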
# CDK4/CCND3 = CDK4/CCND3 (Homo sapiens, UniProt P11802); assay: CDK4 homogeneous time-resolved fluorescence (HTRF) kinase assay; details: CDK4/CCND
# Chain of CDK4/CCND3 (P11802 whole entry): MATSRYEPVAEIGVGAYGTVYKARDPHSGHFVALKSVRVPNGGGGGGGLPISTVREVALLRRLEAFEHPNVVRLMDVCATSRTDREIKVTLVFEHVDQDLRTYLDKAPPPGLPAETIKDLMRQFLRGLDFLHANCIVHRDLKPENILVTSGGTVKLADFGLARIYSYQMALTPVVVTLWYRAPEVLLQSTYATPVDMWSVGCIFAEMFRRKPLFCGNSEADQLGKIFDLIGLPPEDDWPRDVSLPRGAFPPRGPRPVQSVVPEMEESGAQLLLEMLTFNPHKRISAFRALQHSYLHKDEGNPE
# Chain of CDK4/CCND3 (P30281 whole entry partner): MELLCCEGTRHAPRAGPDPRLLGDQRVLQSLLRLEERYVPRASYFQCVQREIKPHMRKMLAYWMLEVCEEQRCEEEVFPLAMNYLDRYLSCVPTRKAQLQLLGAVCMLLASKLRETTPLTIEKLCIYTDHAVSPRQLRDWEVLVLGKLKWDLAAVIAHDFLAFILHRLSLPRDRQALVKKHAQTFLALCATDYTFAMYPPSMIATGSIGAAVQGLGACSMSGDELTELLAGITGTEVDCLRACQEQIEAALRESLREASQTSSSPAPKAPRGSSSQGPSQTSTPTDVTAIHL
# Summary of the method: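 Compounds were preincubated with 1.5 nM CDK4/CCND3 for 20 min at 23 °C in HEPES buffer (pH not given), then reacted 60 min with 1 mM ATP and 50 nM ULight-4E-BP1 (Thr37/46) peptide. EDTA stop, Eu-anti-phospho-4E-BP1 detection; 665/615 nm ratio; IC50 from 11-point half-log titrations from 10 μM.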
# [1] = x = IC50 25-250 nM, read-out: CDK6/CCND IC50 (25-250 nM)
# [2] = x = IC50 <25 nM, read-out: CDK2/CCNE IC50 (<25 nM)
# [3] = x = IC50 25-250 nM, read-out: CDK1/CCNB IC50 (25-250 nM)
# [4] = x = IC50 25-250 nM, read-out: CDK4/CCND IC50 (25-250 nM)
# [5] = x = IC50 >250 nM, read-out: CDK6/CCND IC50 (>250 nM column)
# [6] = x = IC50 >250 nM, read-out: CDK1/CCNB IC50 (>250 nM column)
# [7] = x = IC50 >250 nM, read-out: CDK4/CCND IC50 (>250 nM column)
# [8] = x = IC50 25-250 nM, read-out: CDK2/CCNE IC50 (25-250 nM)
# [9] = >250 nM, 1 mM ATP, read-out: CDK6/CCND IC50, >250 nM
# [10] = 25-250 nM, read-out: CDK2/CCNE IC50, 25-250 nM
# [11] = >250 nM, read-out: CDK1/CCNB IC50 >250 nM
# [12] = >250 nM, read-out: CDK4/CCND IC50, >250 nM
# [13] = <25 nM, read-out: CDK2/CCNE IC50, <25 nM
# Chain of CDK6/CCND1 (Q00534 whole entry): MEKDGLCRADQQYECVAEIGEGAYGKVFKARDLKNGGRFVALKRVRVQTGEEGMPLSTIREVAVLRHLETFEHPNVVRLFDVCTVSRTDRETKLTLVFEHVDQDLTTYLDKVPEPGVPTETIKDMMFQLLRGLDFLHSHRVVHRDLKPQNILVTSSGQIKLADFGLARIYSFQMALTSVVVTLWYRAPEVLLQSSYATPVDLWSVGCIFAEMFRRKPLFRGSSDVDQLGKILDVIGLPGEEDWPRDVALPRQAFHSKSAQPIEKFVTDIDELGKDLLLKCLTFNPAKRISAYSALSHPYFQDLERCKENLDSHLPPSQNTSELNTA
# Chain of CDK6/CCND1 (P24385 whole entry partner): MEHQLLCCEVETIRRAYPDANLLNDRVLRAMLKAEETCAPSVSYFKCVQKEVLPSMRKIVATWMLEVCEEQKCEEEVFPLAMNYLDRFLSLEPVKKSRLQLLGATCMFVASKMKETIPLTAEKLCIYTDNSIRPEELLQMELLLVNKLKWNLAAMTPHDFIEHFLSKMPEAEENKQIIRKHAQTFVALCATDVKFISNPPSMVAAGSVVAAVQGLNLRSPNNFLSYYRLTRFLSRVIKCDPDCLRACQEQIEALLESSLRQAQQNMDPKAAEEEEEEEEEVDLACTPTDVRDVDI
smiles,measurement,setting,value
"Cc1c(-c2nccc3cnc(Nc4ccc(S(=O)(=O)C5CC5)cc4)cc23)ccc2c1cnn2CCO [Ex 662, 2-(5-(7-((4-(cyclopropylsulfonyl)phenyl)amino)-2,6-naphthyridin-1-yl)-4-methyl-1H-indazol-1-yl)ethan-1-ol]",IC50,CDK6/CCND1; [1],25 to 250 nM
same,IC50,CDK2/CCNE1; [2],< 25 nM
same,IC50,CDK1/CCNB1; [3],25 to 250 nM
same,IC50,CDK4/CCND3; [4],25 to 250 nM
"CS(=O)(=O)c1ccc(Nc2cc3c(C#Cc4cn[nH]c4)nccc3cn2)cc1 [Ex 664, 5-((1H-pyrazol-4-yl)ethynyl)-N-(4-(methylsulfonyl)phenyl)-2,6-naphthyridin-3-amine]",IC50,CDK6/CCND1; [5],> 250 nM
same,IC50,CDK2/CCNE1; [2],< 25 nM
same,IC50,CDK1/CCNB1; [6],> 250 nM
same,IC50,CDK4/CCND3; [7],> 250 nM
"N#Cc1ccc(C#Cc2nccc3cnc(Nc4ccc(S(=O)(=O)CCO)cc4)cc23)cc1 [Ex 665, 4-((7-((4-((2-hydroxyethyl)sulfonyl)phenyl)amino)-2,6-naphthyridin-1-yl)ethynyl)benzonitrile]",IC50,CDK6/CCND1; [5],> 250 nM
same,IC50,CDK2/CCNE1; [8],25 to 250 nM
same,IC50,CDK1/CCNB1; [6],> 250 nM
same,IC50,CDK4/CCND3; [7],> 250 nM
"CS(=O)(=O)c1ccc(Nc2cc3c(C#Cc4ccc(=O)[nH]c4)nccc3cn2)cc1 [Ex 667, 5-((7-((4-(methylsulfonyl)phenyl)amino)-2,6-naphthyridin-1-yl)ethynyl)pyridin-2(1H)-one]",IC50,CDK6/CCND1; [5],> 250 nM
same,IC50,CDK2/CCNE1; [2],< 25 nM
same,IC50,CDK1/CCNB1; [3],25 to 250 nM
same,IC50,CDK4/CCND3; [4],25 to 250 nM
"CS(=O)(=O)c1ccc(Nc2cc3c(C#Cc4ccc(C#N)nc4)nccc3cn2)cc1 [Ex 669, 5-((7-((4-(methylsulfonyl)phenyl)amino)-2,6-naphthyridin-1-yl)ethynyl)picolinonitrile]",IC50,CDK6/CCND1; [5],> 250 nM
same,IC50,CDK2/CCNE1; [8],25 to 250 nM
same,IC50,CDK1/CCNB1; [6],> 250 nM
same,IC50,CDK4/CCND3; [7],> 250 nM
"Cc1c(-c2nccc3cnc(Nc4ccc(S(N)(=O)=O)cc4)cc23)ccc2c1cnn2CCO [Ex 673, 4-((5-(1-(2-hydroxyethyl)-4-methyl-1H-indazol-5-yl)-2,6-naphthyridin-3-yl)amino)benzenesulfonamide]",IC50,"CDK6/CCND1; x = IC50 <25 nM, read-out: CDK6/CCND IC50 (<25 nM)",< 25 nM
same,IC50,CDK2/CCNE1; [2],< 25 nM
same,IC50,CDK1/CCNB1; [3],25 to 250 nM
same,IC50,"CDK4/CCND3; x = IC50 <25 nM, read-out: CDK4/CCND IC50 (<25 nM)",< 25 nM
"Cc1c(-c2nccc3cnc(Nc4ccc(S(C)(=O)=O)cc4)cc23)ccc2c1cnn2CC(N)=O [Ex 676, 2-(4-methyl-5-(7-((4-(methylsulfonyl)phenyl)amino)-2,6-naphthyridin-1-yl)-1H-indazol-1-yl)acetamide]",IC50,CDK6/CCND1; [1],25 to 250 nM
same,IC50,CDK2/CCNE1; [2],< 25 nM
same,IC50,CDK1/CCNB1; [3],25 to 250 nM
same,IC50,CDK4/CCND3; [4],25 to 250 nM
"Cc1c(-c2nccc3cnc(Nc4ccc(S(=O)(=O)NCC(F)(F)F)cc4)cc23)ccc2c1cnn2CC(O)(C(F)(F)F)C(F)(F)F [Ex 684, 4-((5-(4-methyl-1-(3,3,3-trifluoro-2-hydroxy-2-(trifluoromethyl)propyl)-1H-indazol-5-yl)-2,6-naphthyridin-3-yl)amino)-N-(2,2,2-trifluoroethyl)benzenesulfonamide]",IC50,CDK6/CCND1; [9],> 250 nM
same,IC50,CDK2/CCNE1; [10],25 to 250 nM
same,IC50,CDK1/CCNB1; [11],> 250 nM
same,IC50,CDK4/CCND3; [12],> 250 nM
"Cc1ccc(NS(=O)(=O)c2ccc(Nc3cc4c(-c5ccc6c(cnn6CC(O)(C(F)(F)F)C(F)(F)F)c5C)nccc4cn3)cc2)nc1N1CCOCC1 [Ex 694, 4-((5-(4-methyl-1-(3,3,3-trifluoro-2-hydroxy-2-(trifluoromethyl)propyl)-1H-indazol-5-yl)-2,6-naphthyridin-3-yl)amino)-N-(5-methyl-6-morpholinopyridin-2-yl)benzenesulfonamide]",IC50,CDK6/CCND1; [9],> 250 nM
same,IC50,CDK2/CCNE1; [10],25 to 250 nM
same,IC50,CDK1/CCNB1; [11],> 250 nM
same,IC50,CDK4/CCND3; [12],> 250 nM
"CCNS(=O)(=O)c1ccc(Nc2cc3c(-c4ccc5c(cnn5CC(O)(C(F)(F)F)C(F)(F)F)c4C)nccc3cn2)cc1 [Ex 695, N-ethyl-4-((5-(4-methyl-1-(3,3,3-trifluoro-2-hydroxy-2-(trifluoromethyl)propyl)-1H-indazol-5-yl)-2,6-naphthyridin-3-yl)amino)benzenesulfonamide]",IC50,CDK6/CCND1; [9],> 250 nM
same,IC50,CDK2/CCNE1; [13],< 25 nM
same,IC50,CDK1/CCNB1; [11],> 250 nM
same,IC50,CDK4/CCND3; [12],> 250 nM
"COc1ccc(NS(=O)(=O)c2ccc(Nc3cc4c(-c5ccc6c(cnn6CC(O)(C(F)(F)F)C(F)(F)F)c5C)nccc4cn3)cc2)nc1N1CCOCC1 [Ex 697, N-(5-methoxy-6-morpholinopyridin-2-yl)-4-((5-(4-methyl-1-(3,3,3-trifluoro-2-hydroxy-2-(trifluoromethyl)propyl)-1H-indazol-5-yl)-2,6-naphthyridin-3-yl)amino)benzenesulfonamide]",IC50,CDK6/CCND1; [9],> 250 nM
same,IC50,CDK2/CCNE1; [10],25 to 250 nM
same,IC50,CDK1/CCNB1; [11],> 250 nM
same,IC50,CDK4/CCND3; [12],> 250 nM
"Cc1cnc(NS(=O)(=O)c2ccc(Nc3cc4c(-c5ccc6c(cnn6CC(O)(C(F)(F)F)C(F)(F)F)c5C)nccc4cn3)cc2)cc1N1CCOCC1 [Ex 701, 4-((5-(4-methyl-1-(3,3,3-trifluoro-2-hydroxy-2-(trifluoromethyl)propyl)-1H-indazol-5-yl)-2,6-naphthyridin-3-yl)amino)-N-(5-methyl-4-morpholinopyridin-2-yl)benzenesulfonamide]",IC50,CDK6/CCND1; [9],> 250 nM
same,IC50,CDK2/CCNE1; [13],< 25 nM
same,IC50,CDK1/CCNB1; [11],> 250 nM
same,IC50,CDK4/CCND3; [12],> 250 nM
"COc1cnc(NS(=O)(=O)c2ccc(Nc3cc4c(-c5ccc6c(cnn6CC(O)(C(F)(F)F)C(F)(F)F)c5C)nccc4cn3)cc2)nc1N1CCOCC1 [Ex 702, N-(5-methoxy-4-morpholinopyrimidin-2-yl)-4-((5-(4-methyl-1-(3,3,3-trifluoro-2-hydroxy-2-(trifluoromethyl)propyl)-1H-indazol-5-yl)-2,6-naphthyridin-3-yl)amino)benzenesulfonamide]",IC50,CDK6/CCND1; [9],> 250 nM
same,IC50,CDK2/CCNE1; [13],< 25 nM
same,IC50,CDK1/CCNB1; [11],> 250 nM
same,IC50,CDK4/CCND3; [12],> 250 nM
"COc1cc(NS(=O)(=O)c2ccc(Nc3cc4c(-c5ccc6c(cnn6CC(O)(C(F)(F)F)C(F)(F)F)c5C)nccc4cn3)cc2)nc(N2CCOCC2)c1 [Ex 703, N-(4-methoxy-6-morpholinopyridin-2-yl)-4-((5-(4-methyl-1-(3,3,3-trifluoro-2-hydroxy-2-(trifluoromethyl)propyl)-1H-indazol-5-yl)-2,6-naphthyridin-3-yl)amino)benzenesulfonamide]",IC50,CDK6/CCND1; [9],> 250 nM
same,IC50,CDK2/CCNE1; [10],25 to 250 nM
same,IC50,CDK1/CCNB1; [11],> 250 nM
same,IC50,CDK4/CCND3; [12],> 250 nM
"COc1cc(N2CCOCC2)cc(NS(=O)(=O)c2ccc(Nc3cc4c(-c5ccc6c(cnn6CC(O)(C(F)(F)F)C(F)(F)F)c5C)nccc4cn3)cc2)n1 [Ex 704, N-(6-methoxy-4-morpholinopyridin-2-yl)-4-((5-(4-methyl-1-(3,3,3-trifluoro-2-hydroxy-2-(trifluoromethyl)propyl)-1H-indazol-5-yl)-2,6-naphthyridin-3-yl)amino)benzenesulfonamide]",IC50,CDK6/CCND1; [9],> 250 nM
same,IC50,CDK2/CCNE1; [10],25 to 250 nM
same,IC50,CDK1/CCNB1; [11],> 250 nM
same,IC50,CDK4/CCND3; [12],> 250 nM
"Cc1cnc(NS(=O)(=O)c2ccc(Nc3cc4c(-c5ccc6c(cnn6CC(O)(C(F)(F)F)C(F)(F)F)c5C)nccc4cn3)cc2)nc1N1CCOCC1 [Ex 706, 4-((5-(4-methyl-1-(3,3,3-trifluoro-2-hydroxy-2-(trifluoromethyl)propyl)-1H-indazol-5-yl)-2,6-naphthyridin-3-yl)amino)-N-(5-methyl-4-morpholinopyrimidin-2-yl)benzenesulfonamide]",IC50,CDK6/CCND1; [9],> 250 nM
same,IC50,CDK2/CCNE1; [13],< 25 nM
same,IC50,CDK1/CCNB1; [11],> 250 nM
same,IC50,CDK4/CCND3; [12],> 250 nM
